Reference: patent US20250250263A1, “INHIBITING HISTONE DEACETYLASE 6 (HDAC6)” (Eikonizo Therapeutics, Inc., priority 2022, published 2025)

Columns and labels:
[1] = molecular target: Human HDAC6 (Homo sapiens (Human), UniProt Q9UBN7); assay: In vitro HDAC6 enzymatic activity (Caliper endpoint assay or fluorogenic Nanosyn assay); type: biochemical; conditions: ratio of HDAC8 IC50/HDAC6 IC50
[2] = molecular target: Human HDAC8 (Homo sapiens (Human), UniProt Q9BY41); assay: In vitro HDAC8 enzymatic activity (Caliper endpoint assay); type: biochemical
Human HDAC8, sequence (Q9BY41 whole entry): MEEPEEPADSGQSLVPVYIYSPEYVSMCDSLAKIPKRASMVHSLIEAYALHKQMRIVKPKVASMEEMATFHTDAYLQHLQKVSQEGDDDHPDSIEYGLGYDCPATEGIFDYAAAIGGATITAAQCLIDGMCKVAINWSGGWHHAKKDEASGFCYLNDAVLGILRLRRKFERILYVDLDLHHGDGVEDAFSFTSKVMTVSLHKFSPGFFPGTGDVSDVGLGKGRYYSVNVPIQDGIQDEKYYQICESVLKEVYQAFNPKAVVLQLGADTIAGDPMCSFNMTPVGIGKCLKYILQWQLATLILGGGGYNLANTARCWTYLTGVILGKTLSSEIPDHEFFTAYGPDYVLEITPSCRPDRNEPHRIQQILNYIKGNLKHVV

Human HDAC6, sequence (Q9UBN7 whole entry): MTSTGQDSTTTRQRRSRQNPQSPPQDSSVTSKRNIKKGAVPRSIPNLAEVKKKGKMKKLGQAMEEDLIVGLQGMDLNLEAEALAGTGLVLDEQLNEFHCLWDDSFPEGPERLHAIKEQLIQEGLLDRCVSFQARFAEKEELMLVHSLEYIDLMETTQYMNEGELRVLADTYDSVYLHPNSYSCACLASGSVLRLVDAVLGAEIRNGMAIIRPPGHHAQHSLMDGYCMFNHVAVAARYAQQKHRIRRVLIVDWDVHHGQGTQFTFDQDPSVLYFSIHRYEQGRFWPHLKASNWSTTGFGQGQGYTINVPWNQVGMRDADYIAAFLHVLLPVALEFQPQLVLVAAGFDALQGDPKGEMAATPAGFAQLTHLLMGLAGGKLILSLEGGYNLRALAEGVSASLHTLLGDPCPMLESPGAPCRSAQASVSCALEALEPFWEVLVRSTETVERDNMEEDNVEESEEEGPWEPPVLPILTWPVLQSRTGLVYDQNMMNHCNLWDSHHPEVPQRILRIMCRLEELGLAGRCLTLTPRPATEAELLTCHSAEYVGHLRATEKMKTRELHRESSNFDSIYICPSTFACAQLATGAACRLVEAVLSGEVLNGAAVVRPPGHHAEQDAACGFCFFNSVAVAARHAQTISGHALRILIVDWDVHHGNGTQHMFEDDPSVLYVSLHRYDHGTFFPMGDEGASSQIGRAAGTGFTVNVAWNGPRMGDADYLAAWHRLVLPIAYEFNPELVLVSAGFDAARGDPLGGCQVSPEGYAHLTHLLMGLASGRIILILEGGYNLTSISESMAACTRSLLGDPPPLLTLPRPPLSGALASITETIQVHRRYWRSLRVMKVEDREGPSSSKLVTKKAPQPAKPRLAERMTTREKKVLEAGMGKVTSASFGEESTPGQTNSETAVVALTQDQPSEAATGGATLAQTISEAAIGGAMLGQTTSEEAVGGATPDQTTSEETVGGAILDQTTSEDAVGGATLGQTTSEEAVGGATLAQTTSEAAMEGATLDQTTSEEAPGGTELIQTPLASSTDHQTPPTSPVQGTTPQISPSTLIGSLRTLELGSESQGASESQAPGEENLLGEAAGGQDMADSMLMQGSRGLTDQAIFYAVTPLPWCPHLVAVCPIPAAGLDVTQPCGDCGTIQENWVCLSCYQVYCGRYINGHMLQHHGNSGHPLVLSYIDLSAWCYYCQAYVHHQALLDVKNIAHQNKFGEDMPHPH

SMILES | Selectivity (6 v 8) (fold) [1] | IC50 [2] [µM]
N#Cc1cc(OCc2ccc(-c3nnc(C(F)F)o3)cn2)ccc1F [Compound 30, 5-((5-(5-(difluoromethyl)-1,3,4-oxadiazol-2-yl)pyridin-2-yl)methoxy)-2-fluorobenzonitrile] | IV (IV: >100-1000) | 
FC(F)c1nnc(-c2ccc(COc3ccc4cccnc4c3)nc2)o1 [Compound 34] | V (V: >1000) | > 100
FC(F)c1nnc(-c2ccc(COc3cccc4ncccc34)nc2)o1 [Compound 63] | V (V: >1000) | > 100
